Measurements as given in patent US9675624B2, “Combination of levocabastine and fluticasone furoate for the treatment of inflammatory and/or allergic conditions” (Glaxo Group Limited, priority 2012, dated 2017).

Test: Competitive ripening experiments on levocabastine free base forms
Format: physicochemical
Excerpt: It has been observed that the levocabastine HCl salt converts during the preparation of formulations of the invention (e.g. as described in Examples 1 and 2) to levocabastine free base. Levocabastine free base Forms 1 and 2 were observed during the form screen of the HCl salt and during pH solubility studies.

relative stability of polymorphic forms of the free base: most stable form
SMILES: C[C@@H]1CN(C2CCC(C#N)(c3ccc(F)cc3)CC2)CC[C@]1(C(=O)O)c1ccccc1 (stereo partly drawn) [levocabastine Form 1, (3S,4R)-1-[4-cyano-4-(4-fluorophenyl)cyclohexyl]-3-methyl-4-phenylpiperidine-4-carboxylic acid]
